Values quoted from earlier work as cited in paper PMC7395068, “The evolution of strategies to minimise the risk of human drug-induced liver injury (DILI) in drug discovery and development” (Archives of Toxicology, 2020).
Structures can show the parent of a compound that is named as a salt. Where two headings read alike, the source gives them in different places.

How the values were obtained:
human hepatocytes = details: cited from earlier work; for Structural based (HCI), In vitro Assay: human hepatocyte imaging
[1] = cited from earlier work
[2] = test system: THLE or HepG2 cells, isolated mitochondria, BSEP; details: cited from earlier work
[3] = ref Chen 2016; cited from earlier work
[4] = test system: primary human hepatocytes, NIH3T3 fibroblasts, BSEP, CYP3A4; details: In vitro Assay; ref Schadt 2015; cited from earlier work

| Compound | Structural based (HCI) (human hepatocytes; In vitro Assay, ref Xu 2008) | In vivo DILI ([1]; ref Aleo 2019) | Partition Hybrid HRM Score ([2]; In vitro Assay, ref Aleo 2019) | Ro2 Hybrid HRM Score ([2]; In vitro Assay, ref Aleo 2019) | DILI +VE (5-8), DILI -VE (-4) [3] | DILI severity category [3] | further results |
| --- | --- | --- | --- | --- | --- | --- | --- |
| CC(=O)Nc1nnc(S(N)(=O)=O)s1 [acetazolamide] | -VE |  |  |  |  |  |  |
| Nc1ncnc2c1ncn2[C@@H]1O[C@H](CO)[C@@H](O)[C@H]1O [adenosine] | -VE |  |  |  |  |  |  |
| Nc1ccc(C(=O)O)cc1 [aminobenzoate potassium] | -VE |  |  |  |  |  |  |
| COc1cc(NS(C)(=O)=O)ccc1Nc1c2ccccc2nc2ccccc12 [amsacrine] | +VE |  |  |  |  |  |  |
| CCOC(=O)[C@H](CCc1ccccc1)N[C@H]1CCc2ccccc2N(CC(=O)O)C1=O [benazepril] | -VE |  |  |  |  |  |  |
| CCc1oc2ccccc2c1C(=O)c1cc(I)c(O)c(I)c1 [benziodarone] |  | +VE | +VE | +VE | +VE | vMost-DILI-Concern |  |
| CC(NC(C)(C)C)C(=O)c1cccc(Cl)c1 (stereo not drawn) [bupropion] | -VE |  |  |  |  |  |  |
| CC(C)(CO)[C@@H](O)C(=O)NCCC(=O)O [calcium pantothenate] | -VE |  |  |  |  |  |  |
| CCOc1nc2cccc(C(=O)O)c2n1Cc1ccc(-c2ccccc2-c2nnn[nH]2)cc1 [candesartan] |  | +VE | -VE | -VE | +VE | vLess-DILI-Concern |  |
| CN1CCC[C@@H]1CCO[C@](C)(c1ccccc1)c1ccc(Cl)cc1 [clemastine] |  | -VE | -VE | -VE | -VE | vNo-DILI-Concern | In vivo DILI ([1]; […]): -VE |
| C#C[C@]1(O)CC[C@H]2[C@@H]3CCC4=Cc5oncc5C[C@]4(C)[C@H]3CC[C@@]21C [danazol] |  |  |  |  |  |  | Structural based (HCI) (human hepatocytes): -VE |
| O=c1[nH]cnc2c1ncn2[C@H]1CC[C@@H](CO)O1 [didanosine] | -VE |  |  |  |  |  |  |
| CN1C[C@H](C(=O)N[C@]2(C)O[C@@]3(O)[C@@H]4CCCN4C(=O)[C@H](Cc4ccccc4)N3C2=O)C[C@@H]2c3cccc4[nH]cc(c34)C[C@H]21 [dihydroergotamine] |  | -VE |  |  | -VE | vNo-DILI-Concern | Partition Hybrid HRM Score [2]: -VE; Ro2 Hybrid HRM Score [2]: -VE |
| NC(N)=Nc1nc(CSCCN/C=N/S(=O)(=O)c2ccc(Br)cc2)cs1 [ebrotidine] |  | +VE | +VE | +VE | +VE | vMost-DILI-Concern |  |
| CC[N+](C)(C)c1cccc(O)c1 [edrophonium chloride] |  |  |  |  |  |  | Structural based (HCI) (human hepatocytes): -VE |
| COC(=O)CCc1ccc(OCC(O)CNC(C)C)cc1 (stereo not drawn) [esmolol] |  | -VE | +VE | -VE | -VE | vNo-DILI-Concern |  |
| C#C[C@]1(OC(C)=O)CC[C@H]2[C@@H]3CCC4=C[C@@H](OC(C)=O)CC[C@@H]4[C@H]3CC[C@@]21C [ethynodiol diacetate] | -VE |  |  |  |  |  |  |
| Cc1nc(-c2ccc(OCC(C)C)c(C#N)c2)sc1C(=O)O [febuxostat] |  | +VE | +VE | +VE | +VE | vMost-DILI-Concern |  |

| Compound | Structural based (HCI) (human hepatocytes; In vitro Assay, ref Xu 2008) | In vivo DILI ([1]; ref Aleo 2019) | Partition Hybrid HRM Score ([2]; In vitro Assay, ref Aleo 2019) | Ro2 Hybrid HRM Score ([2]; In vitro Assay, ref Aleo 2019) | DILI +VE (5-8), DILI -VE (-4) [3] | DILI severity category [3] | further results |
| --- | --- | --- | --- | --- | --- | --- | --- |
| O=C(COc1ccc(Cl)cc1)N1CCN(Cc2ccc3c(c2)OCO3)CC1 [fipexide] |  | +VE | +VE | +VE | +VE | vMost-DILI-Concern |  |
| Nc1nc(=O)[nH]cc1F [flucytosine] | +VE |  |  |  |  |  |  |
| COCCCC/C(=N\OCCN)c1ccc(C(F)(F)F)cc1 [fluvoxamine] |  |  |  |  |  |  | Structural based (HCI) (human hepatocytes): -VE |
| Nc1nc2ncc(CNc3ccc(C(=O)N[C@@H](CCC(=O)O)C(=O)O)cc3)nc2c(=O)[nH]1 [folate] | -VE |  |  |  |  |  |  |
| CC[N+](CC)(CC)CCOc1cccc(OCC[N+](CC)(CC)CC)c1OCC[N+](CC)(CC)CC [gallamine triethiodide] |  |  |  |  |  |  | Structural based (HCI), In vitro Assay (human hepatocytes; ref Xu 2008): -VE |
| NC[C@H]1O[C@H](O[C@H]2[C@H](O)[C@@H](O[C@H]3O[C@H](CO)[C@@H](O)[C@H](N)[C@H]3O)[C@H](N)C[C@@H]2N)[C@H](O)[C@@H](O)[C@@H]1O [kanamycin sulfate] | -VE |  |  |  |  |  |  |
| N=C(N)NCCC[C@H](N)C(=O)O [l-arginine] | -VE |  |  |  |  |  |  |
| C[C@H](CCC(=O)O)[C@H]1CC[C@H]2[C@@H]3CC[C@@H]4C[C@H](O)CC[C@]4(C)[C@H]3CC[C@]12C [lithocholic acid] |  |  |  |  |  |  | Structural based (HCI), In vitro Assay (human hepatocytes; ref Xu 2008): -VE |
| CCn1cc(C(=O)O)c(=O)c2cc(F)c(N3CCNC(C)C3)c(F)c21 (stereo not drawn) [lomefloxacin] | -VE |  |  |  |  |  |  |
| O=C(O)/C=C\C(=O)O [maleic acid] | -VE |  |  |  |  |  |  |
| Cc1nc2n(c(=O)c1CCN1CCC(c3noc4cc(F)ccc34)CC1)CCCC2O (stereo not drawn) [paliperidone] |  | -VE | -VE | -VE | -VE | vNo-DILI-Concern |  |
| Cn1c(=O)c2[nH]c(Br)nc2n(C)c1=O [pamabrom] |  | -VE | -VE | -VE | -VE | vNo-DILI-Concern |  |
| CC(C(=O)O)c1ccc(N2CC=CC2)c(Cl)c1 (stereo not drawn) [pirprofen] |  | +VE | +VE | -VE | +VE | vMost-DILI-Concern | In vivo DILI ([1]; […]): +VE |
| CNCCCC1c2ccccc2C=Cc2ccccc21 [protriptyline] |  | -VE | -VE | -VE | -VE | vNo-DILI-Concern | Cellular toxicity (3T3 cells) [4]: -VE; Combined Assay [4]: +VE; GSH adduct HML [4]: -VE; Hepatocyte cellular toxicity [4]: -VE; MitoTox 3T3 [4]: +VE; TDI CYP3A4 [4]: -VE; hBSEP inhibition [4]: -VE; In vivo DILI ([1]; ref Schadt 2015): -VE |
| CCOc1ccccc1OCCN[C@H](C)Cc1ccc(OC)c(S(N)(=O)=O)c1 [tamsulosin] |  | +VE | -VE | -VE | +VE | vLess-DILI-Concern | Cellular toxicity (3T3 cells) [4]: -VE; Combined Assay [4]: -VE; GSH adduct HML [4]: -VE; Hepatocyte cellular toxicity [4]: -VE; MitoTox 3T3 [4]: -VE; TDI CYP3A4 [4]: -VE; hBSEP inhibition [4]: -VE; In vivo DILI ([1]; ref Schadt 2015): -VE |
| Cc1nc(C)c2c(n1)N(Cc1ccc(-c3ccccc3-c3nnn[nH]3)cc1)C(=O)CC2 [tasosartan] |  |  | +VE | +VE |  |  | Cellular toxicity (3T3 cells) [4]: -VE; Combined Assay [4]: +VE; GSH adduct HML [4]: -VE; Hepatocyte cellular toxicity [4]: +VE; MitoTox 3T3 [4]: -VE; TDI CYP3A4 [4]: -VE; hBSEP inhibition [4]: +VE |
| OC(CCN1CCCCC1)(c1ccccc1)C1CCCCC1 (stereo not drawn) [trihexyphenidyl] |  | -VE | -VE | -VE | -VE | vNo-DILI-Concern |  |
